Reference: US8012944B2, “Method for treating cancer using IAP antisense oligomer and chemotherapeutic agent” (Pharmascience Inc., priority 2003, dated 2011)

How the values were obtained:
Assay type in all cases: cell-based, human
SF295 cells = test: Cytotoxicity of HIAP1 oligonucleotides measured by total protein; settings: FIG. 23
Text: FIG. 23 is a graph showing the effects of HIAP1 oligonucleotides on cytotoxicity, as measured by total protein.

HIAP1 mRNA [1] = test: HIAP1 mRNA in SF295 cells, basal conditions (TaqMan); parameters: decrease of HIAP1 mRNA compared to mock or scrambled survivin control: concentration or dose not given beside the values; settings: for HIAP1 mRNA levels (in words): SF295 cells (FIG. 21)
In short: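 SF295 glioblastoma cells transfected with antisense oligonucleotides via lipofectin under basal conditions; RNA isolated 6 h post-transfection. HIAP1 mRNA quantified by TaqMan RT-PCR using the comparative Ct method, normalized to GAPDH and expressed relative to scrambled survivin oligonucleotide set as 1.0.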

HIAP1 mRNA [2] = test: HIAP1 mRNA in SF295 cells under cycloheximide induction (TaqMan)
Protocol: (§1) The effect of HIAP1 antisense nucleobase oligomers on HIAP1 protein and mRNA expression was also examined in cells induced to express HIAP1. SF295 cells were transfected with oligonucleotides, or were mock transfected. The transfected cells were then treated with 10 μg/ml cycloheximide for 24 hours to induce 70 kDa HIAP1 mRNA and protein. Protein levels were measured by western blot analysis with an anti-HIAP1 polyclonal antibody, and normalized against actin protein in a re-probing of the same blots. The densitometric scan results were plotted against the mock results (set at 100%) in FIG. 22B. […] The transfection process itself (e.g., mock or scrambled survivin) induces HIAP1 protein compared to the untreated sample as shown on the western immunoblot.
Controls for this experiment were three oligonucleotides for APO 2: one scrambled sequence (same base composition but random order, 5′-AAGGGCGGCGGAGTGAGAC-3′; SEQ ID NO: 297), one reverse polarity (same base composition, same sequential order but in the opposite direction, 5′-AGAGGACGGAGTCGGAGGC-3′; SEQ ID NO: 298), and one mismatch sequence (containing four base mismatches out of 19 bases, 5′-CGGAGCGTGAGGATGGAGA-3′; SEQ ID NO: 299).

survivin protein = test: Survivin protein after APO 2 treatment; settings: after oligo treatment
HIAP1 protein = HIAP1 protein in cycloheximide-induced SF295 cells (western blot)
Text: HIAP1 was detected on a western immunoblot using an affinity-purified anti-rat HIAP1 rabbit polyclonal antibody as a primary antibody and was detected by ECL (Amersham) on X-ray film with a secondary horseradish-peroxidase-conjugated anti-rabbit Ig antibody and a chemiluminescent substrate. The anti-HIAP1 polyclonal antibody is raised against a GST-fusion of the rat HIAP1. This antibody cross-reacts with both human and murine HIAP1 and HIAP2.
as §1

Q: Which results are given for “TCTCACAGACGTTGGGCTT (chemistry not given here) [APO 6]”?
A: toxicity seen as general decrease in total protein (SF295 cells): evidence of toxicity; HIAP1 mRNA levels (in words) (HIAP1 mRNA [1]): stress-induced increase in HIAP1 mRNA

Q: “CGGAGGCTGAGGCAGGAGA (CGGAGGCNGAGGCAGGAGA; chemistry not given here) [APO 2]” was tested. Which “effect on HIAP1 mRNA (and protein) under CHX induction (in words)” value (HIAP1 mRNA [2]) did it give?
A: greatest block of CHX-induced upregulation of HIAP1 mRNA and protein

Q: And the “decrease in HIAP1 mRNA compared to scrambled survivin control” value (HIAP1 mRNA [2]; cycloheximide induction conditions, 6 hours after transfection)?
A: 50%

Q: And the “HIAP1 mRNA levels (in words)” value (HIAP1 mRNA [1])?
A: did not cause a stress-induced increase in HIAP1 mRNA

Q: And the “decrease of HIAP1 mRNA compared to mock or scrambled survivin control” value (HIAP1 mRNA [1]; SF295 cells, six hours after transfection)?
A: ~50%

Q: What about the “loss of survivin protein (specificity)” value (survivin protein) of the same sequence?
A: did not see any loss of survivin protein

Q: And the “activity in the HIAP1 protein and mRNA assays” value (HIAP1 protein)?
A: high activity, or had significant activity in both the protein and mRNA assays
